Experimental data: ChEMBL document CHEMBL5724914, “Linking interpersonal differences in gut microbiota composition and drug biotransformation activity” (2024)

Key:
[1] = (§1) The drug is tested on Z-029 corresponding to rat gut metagenome with ENA study accession number: PRJEB37062 and ENA sample accession number: ERS12561828 for biotransformation under anaerobic condition. The drug concentrations were measured over 9 timepoints collected between 0 and 24 hours of incubation by liquid-chromatography-coupled mass spectrometry (LC–MS); conditions: 2 µM
[2] = as §1, with “on Z-002” for “on Z-029”, “to rabbit” for “to rat”, “number: ERS12561802” for “number: ERS12561828”; conditions: 2 µM
[3] = as §1, with “on WLS-010” for “on Z-029”, “to human” for “to rat”, “number: ERS12561743” for “number: ERS12561828”; conditions: 2 µM
[4] = human gut metagenome, 24 h, 2 µM
[5] = as §1, with “Z-004” for “Z-029”, “to” for “to rat gut”, “ERS12561804” for “ERS12561828”; conditions: 2 µM
[6] = as §1, with “on WLS-082” for “on Z-029”, “to human” for “to rat”, “number: ERS12561751” for “number: ERS12561828”; conditions: 2 µM
[7] = human gut metagenome, 24 h, 2 µM; remark: listed apart in the source
[8] = as §1, with “on Z-022” for “on Z-029”, “to mouse” for “to rat”, “number: ERS12561821” for “number: ERS12561828”; conditions: 2 µM
[9] = as §1, with “Z-012” for “Z-029”, “to” for “to rat gut”, “ERS12561812” for “ERS12561828”; conditions: 2 µM
Further: call rule not given here.

Row | Structure (SMILES) | Bacterial Biotransformation [1] | Bacterial Biotransformation [2] | Bacterial Biotransformation [3] | Bacterial Biotransformation [4] | Bacterial Biotransformation [5] | Bacterial Biotransformation [6] | Bacterial Biotransformation [7] | Bacterial Biotransformation [8] | Bacterial Biotransformation [9]
1 | CCCN1C[C@H](CSC)C[C@@H]2c3cccc4[nH]cc(c34)C[C@H]21.CS(=O)(=O)O [PERGOLIDE MESYLATE] | Compound NOT metabolized | Compound NOT metabolized | Compound NOT metabolized | Compound NOT metabolized | Compound NOT metabolized | Compound NOT metabolized | Compound NOT metabolized | Compound NOT metabolized | Compound NOT metabolized
2 | CC(C)(C)N.CCC[C@H](N[C@@H](C)C(=O)N1[C@H](C(=O)O)C[C@@H]2CCCC[C@@H]21)C(=O)OCC [PERINDOPRIL ERBUMINE] | Compound NOT metabolized | Compound metabolized | Compound metabolized | Compound metabolized | Compound metabolized | Compound metabolized | Compound metabolized | Compound metabolized | Compound metabolized
3 | C=C[C@H]1CN2CC[C@H]1C[C@H]2[C@H](O)c1ccnc2ccc(OC)cc12.C=C[C@H]1CN2CC[C@H]1C[C@H]2[C@H](O)c1ccnc2ccc(OC)cc12.O.O.O=S(=O)(O)O [QUININE SULFATE] | Compound NOT metabolized | Compound NOT metabolized | Compound NOT metabolized | Compound metabolized | Compound NOT metabolized | Compound NOT metabolized | Compound NOT metabolized | Compound NOT metabolized | Compound NOT metabolized
4 | O=C(NC(Cc1cc(=O)[nH]c2ccccc12)C(=O)O)c1ccc(Cl)cc1 (configuration not stated) [REBAMIPIDE] | Compound NOT metabolized | Compound metabolized | Compound metabolized | Compound NOT metabolized | Compound NOT metabolized | Compound NOT metabolized | Compound NOT metabolized | Compound NOT metabolized | Compound NOT metabolized
5 | CCOc1cc(CC(=O)N[C@@H](CC(C)C)c2ccccc2N2CCCCC2)ccc1C(=O)O [REPAGLINIDE] | Compound NOT metabolized | Compound metabolized | Compound metabolized | Compound metabolized | Compound metabolized | Compound metabolized | Compound metabolized | Compound metabolized | Compound metabolized
6 | CC(N)C12CC3CC(CC(C3)C1)C2 (configuration not stated) [RIMANTADINE] | Compound NOT metabolized | Compound NOT metabolized | Compound NOT metabolized | Compound NOT metabolized | Compound NOT metabolized | Compound NOT metabolized | Compound NOT metabolized | Compound metabolized | Compound NOT metabolized
7 | CCN(C)C(=O)Oc1cccc([C@H](C)N(C)C)c1.O=C(O)C(O)C(O)C(=O)O [RIVASTIGMINE TARTRATE] | Compound NOT metabolized | Compound NOT metabolized | Compound NOT metabolized | Compound metabolized | Compound NOT metabolized | Compound NOT metabolized | Compound NOT metabolized | Compound NOT metabolized | Compound NOT metabolized
8 | CCCN(CCC)CCc1cccc2c1CC(=O)N2 [ROPINIROLE] | Compound NOT metabolized | Compound metabolized | Compound NOT metabolized | Compound NOT metabolized | Compound NOT metabolized | Compound NOT metabolized | Compound NOT metabolized | Compound NOT metabolized | Compound metabolized
9 | O=C(O)CCC(=O)O.O=C(O[C@H]1CN2CCC1CC2)N1CCc2ccccc2[C@@H]1c1ccccc1 [SOLIFENACIN SUCCINATE] | Compound NOT metabolized | Compound metabolized | Compound metabolized | Compound metabolized | Compound metabolized | Compound metabolized | Compound NOT metabolized | Compound metabolized | Compound metabolized
10 | O=C(CCCN1CCC2(CC1)C(=O)NCN2c1ccccc1)c1ccc(F)cc1 [SPIPERONE] | Compound NOT metabolized | Compound NOT metabolized | Compound NOT metabolized | Compound metabolized | Compound NOT metabolized | Compound NOT metabolized | Compound NOT metabolized | Compound NOT metabolized | Compound NOT metabolized
11 | O=C1C(CC[S+]([O-])c2ccccc2)C(=O)N(c2ccccc2)N1c1ccccc1 (configuration not stated) [SULFINPYRAZONE] | Compound NOT metabolized | Compound metabolized | Compound metabolized | Compound metabolized | Compound NOT metabolized | Compound metabolized | Compound metabolized | Compound NOT metabolized | Compound NOT metabolized
12 | CCOc1ccccc1OCCN[C@H](C)Cc1ccc(OC)c(S(N)(=O)=O)c1.Cl [TAMSULOSIN HYDROCHLORIDE] | Compound NOT metabolized | Compound metabolized | Compound NOT metabolized | Compound NOT metabolized | Compound NOT metabolized | Compound NOT metabolized | Compound NOT metabolized | Compound NOT metabolized | Compound NOT metabolized
13 | COc1cc2nc(N3CCN(C(=O)C4CCCO4)CC3)nc(N)c2cc1OC (configuration not stated) [TERAZOSIN] | Compound NOT metabolized | Compound NOT metabolized | Compound NOT metabolized | Compound metabolized | Compound NOT metabolized | Compound metabolized | Compound NOT metabolized | Compound NOT metabolized | Compound NOT metabolized
14 | c1ccc2[nH]c(-c3cscn3)nc2c1 [THIABENDAZOLE] | Compound NOT metabolized | Compound NOT metabolized | Compound NOT metabolized | Compound NOT metabolized | Compound NOT metabolized | Compound NOT metabolized | Compound NOT metabolized | Compound NOT metabolized | Compound NOT metabolized
15 | CCN(CC)CCNC(=O)c1cc(S(C)(=O)=O)ccc1OC [TIAPRIDE] | Compound NOT metabolized | Compound metabolized | Compound NOT metabolized | Compound metabolized | Compound NOT metabolized | Compound NOT metabolized | Compound NOT metabolized | Compound NOT metabolized | Compound NOT metabolized
16 | CC(C)(C)NC[C@H](O)COc1nsnc1N1CCOCC1.O=C(O)/C=C\C(=O)O [TIMOLOL MALEATE] | Compound NOT metabolized | Compound NOT metabolized | Compound NOT metabolized | Compound NOT metabolized | Compound NOT metabolized | Compound NOT metabolized | Compound NOT metabolized | Compound NOT metabolized | Compound NOT metabolized
17 | CC[C@@]1(O)C(=O)OCc2c1cc1n(c2=O)Cc2cc3c(CN(C)C)c(O)ccc3nc2-1 [TOPOTECAN] | Compound NOT metabolized | Compound NOT metabolized | Compound NOT metabolized | Compound NOT metabolized | Compound NOT metabolized | Compound NOT metabolized | Compound NOT metabolized | Compound NOT metabolized | Compound NOT metabolized
18 | COc1cc(C(=O)NCc2ccc(OCCN(C)C)cc2)cc(OC)c1OC [TRIMETHOBENZAMIDE] | Compound NOT metabolized | Compound NOT metabolized | Compound NOT metabolized | Compound NOT metabolized | Compound NOT metabolized | Compound NOT metabolized | Compound NOT metabolized | Compound NOT metabolized | Compound NOT metabolized
